# Data as given in US8088808B2, “Substituted N-phenyl-bipyrrolidine carboxamides and therapeutic use thereof” (Sanofi, priority 2007, dated 2012).
# Structures can show the parent of a compound that is named as a salt.
# Assays:
# [1] = biological target: MCH receptor (Homo sapiens, UniProt Q99705); assay: MCH receptor [125J]-ligand binding filtration assay; conditions: 10 μM test compound; percent inhibition of ligand binding
# Protocol: The activity of the compounds of this invention at the MCH receptor site, if any was measured by the procedures as set forth below. • Test Compounds The compounds of this invention were stored in a 96-well microtiter plates (1 μL, 10 mM, 100% DMSO). Each of the test sample was diluted with 249 μL of 100% DMSO (dilution 1:250). […] Blank: Assay buffer containing 0.4% DMSO were transferred to the dilution microtiter plates for blanks • Assay Procedure: The filter plates with […] of 0.5% PEI-solution/well were incubated for 2 hours at room temperature. PEI was removed by vacuum filtration just before pipetting (Univac Polyfiltronic/Whatman). The solution of the compound as prepared above (50 μL), or MCH ([…]) or Puffer/DMSO (positive control) were added to 96-well round bottom microtiter plate. Then 50 μl of [^125J]-ligand solution was added followed by 100 μl of membrane suspension. The plates were closed with the lids, and incubated for 60 min. at 25° C. The samples were transferred to GF/B filter plate. The reaction mixture was removed by vacuum filtration, washed 4× with 300 μL ice-cold washing buffer and the washing solution was removed by vacuum filtration. The rubber layer at the bottom of the plate was then removed and the filters were dried over night at room temperature. 25 μL of scintillation cocktail was added and the plates were sealed and, plate frames were added and incubated for 1 hour at room temperature. The radioactivity was then measured, settings ^125J standard, 30 sec./well.
# [2] = biological target: rhesus (Macaca Mulatta) H3 receptor (Macaca mulatta, UniProt Q865E1); assay: Rhesus H3 radioligand binding assay ([3H]-Methylhistamine displacement, WGA SPA beads); parameters: species or system rhesus monkey (Macaca Mulatta)
# Protocol: (§1) (Genbank #AY231164). Stably transfected cultures were amplified in tissue culture flasks by standard tissue culture methods and induced to express rhesus H3 by exposure to 500 ng/ml tetracycline (Cellgro) for 24 hours. After induction, cells were dissociated from flasks utilizing Cell Stripper (Cellgro). Cells were centrifuged (1K×g, 5 min) and pellet frozen in an ethanol-dry ice bath to disrupt cell membranes. Frozen cell pellet was re-suspended in 5 mM HEPES (pH 7.4, Invitrogen) at 10 ml/1000 cm2 of harvested cells. The cell suspension was drawn through an 18 gauge needle (2-3×) followed by a 23 gauge needle (2-3×) to further disrupt cell membranes. The cell suspension was centrifuged (40K×g, 30 min). Cell membrane pellet was re-suspended in 5 mM HEPES (pH 7.4, Invitrogen) at a final protein concentration of 10 mg/ml. Rhesus H3 membranes were stored under liquid nitrogen prior to use in [3H]-Methylhistamine and GTPγS radioligand binding assays.
# Rhesus H3 radioligand binding assay was performed using rhesus H3 receptor membranes (prepared as described above), [3H]-Methylhistamine (Perkin Elmer) and WGA SPA beads (wheat germ agglutinin scintillation proximity assay) beads (Amersham). The assay was performed in 96-well Opti-Plates (Packard). Each reaction contained 50 μl rhesus H3 membranes (20-30 μg total protein), 50 μl WGA SPA beads (0.1 μg) and 50 μl of 83 Ci/mmol [^3H]-Methylhistamine (final concentration 2 nM) and 50 μl of tested compound. The compounds of this invention and/or vehicle were diluted with binding buffer from 10 mM DMSO stocks. Assay plates were sealed with TopSeal (Perkin Elmer) and mixed on shaker (25° C., 1 hour). Assay plates were read on TopCount scintillation counter (Packard). Results were analyzed by Hill transformation and Ki values were determined by Cheng-Prusoff equation.
# [3] = test system: rhesus H3; assay: GTPγS radioligand binding assay (inhibition of rhesus H3 constitutive functional activity in cell membranes); format: biochemical, rhesus monkey (Macaca Mulatta); conditions: Table 1; relative to basal level
# Protocol: as §1, with “Rhesus H3 membranes were prepared from the Flp-In T-REx 293 Cell Line (Invitrogen) stably transfected with pcDNA5/FRT/TO (Invitrogen) containing the rhesus monkey (Macaca Mulatta) 445 amino acid H3 receptor. (Genbank” for “(Genbank”
# [4] = Table 1, [3H]-Methylhistamine 2 nM, Cheng-Prusoff
# [5] = Table 2, procedure of Example 42
# Sequence of rhesus (Macaca Mulatta) H3 receptor (Q865E1 1-445): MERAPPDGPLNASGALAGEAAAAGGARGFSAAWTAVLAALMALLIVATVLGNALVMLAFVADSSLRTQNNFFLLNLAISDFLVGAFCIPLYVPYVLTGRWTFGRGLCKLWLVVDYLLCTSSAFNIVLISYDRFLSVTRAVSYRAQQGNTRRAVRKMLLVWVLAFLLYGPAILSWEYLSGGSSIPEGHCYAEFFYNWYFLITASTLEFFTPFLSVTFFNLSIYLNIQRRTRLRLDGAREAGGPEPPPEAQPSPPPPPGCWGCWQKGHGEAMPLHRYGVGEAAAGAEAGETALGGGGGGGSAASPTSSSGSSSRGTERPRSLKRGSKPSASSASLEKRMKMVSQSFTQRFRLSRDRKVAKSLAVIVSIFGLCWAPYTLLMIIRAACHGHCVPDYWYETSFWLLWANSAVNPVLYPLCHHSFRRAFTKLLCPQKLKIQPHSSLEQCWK
# Sequence of MCH receptor (Q99705 whole entry): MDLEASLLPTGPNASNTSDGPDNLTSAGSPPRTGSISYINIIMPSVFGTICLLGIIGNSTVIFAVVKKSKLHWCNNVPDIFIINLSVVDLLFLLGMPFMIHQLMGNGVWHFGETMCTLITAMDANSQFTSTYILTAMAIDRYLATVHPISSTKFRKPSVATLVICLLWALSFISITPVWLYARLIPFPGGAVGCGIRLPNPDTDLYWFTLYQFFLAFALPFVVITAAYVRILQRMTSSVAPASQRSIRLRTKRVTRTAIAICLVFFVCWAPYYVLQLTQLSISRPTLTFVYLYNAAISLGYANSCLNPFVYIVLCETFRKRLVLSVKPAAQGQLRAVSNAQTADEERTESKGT
inhibition at 10 µM [1] [%],"Ki [2, 4] [nM]","Ki [2, 5] [nM]",SMILES,Inverse Agonism: % inhibition of Basal GTPγS binding in Rhesus H3 [3] [%]
-6.9,1.8,1.8,"Cc1cc(N2CC[C@H](N3CCC[C@@H]3C)C2)ccc1NC(=O)c1ccoc1 [Example 6, Furan-3-carboxylic acid [2-methyl-4-(2S-methyl-[1,3′S]bipyrrolidinyl-1′-yl)-phenyl]-amide trifluoro-acetate]",−17
0.7,3.14,3.1,"CC1CCCN1C1CCN(c2ccc(NC(=O)CC3CCCC3)cc2)C1 (stereo not drawn) [Example 36, 2-Cyclopentyl-N-[4-(2-methyl-[1,3′]bipyrrolidinyl-1′-yl)-phenyl]-acetamide trifluoroacetate]",−33
34.4,,14.2,"Cc1cc(N2CCC(N3CCCC3C)C2)ccc1NC(=O)c1cc(-c2ccncc2)n[nH]1 (stereo not drawn) [Example 37, 5-Pyridin-4-yl-2H-pyrazole-3-carboxylic acid [2-methyl-4-(2-methyl-[1,3′]bipyrrolidinyl-1′-yl)-phenyl]-amide trifluoroacetate]",
3.7,,10.7,"Cc1cc(NC(=O)CC2CCCC2)ccc1N1CCC(N2CCCC2C)C1 (stereo not drawn) [Example 38, 2-Cyclopentyl-N-[3-methyl-4-(2-methyl-[1,3′]bipyrrolidinyl-1′-yl)-phenyl]-acetamide trifluoroacetate]",
-3.4,,9.7,"CC1CCCN1C1CCN(c2ccc(NC(=O)C3CC3)cc2)C1 (stereo not drawn) [Example 40, Cyclopropanecarboxylic acid [4-(2-methyl-[1,3′]bipyrrolidinyl-1′-yl)-phenyl]-amide trifluoroacetate]",
-1.3,,17.7,"Cc1cc(NC(=O)C2CC2)ccc1N1CCC(N2CCCC2C)C1 (stereo not drawn) [Example 41, Cyclopropanecarboxylic acid [3-methyl-4-(2-methyl[1,3′]bipyrrolidinyl-1′-yl)-phenyl]-amide trifluoroacetate]",

SMILES,inhibition at 10 µM [1] [%],"Ki [2, 4] [nM]","Ki [2, 5] [nM]",Inverse Agonism: % inhibition of Basal GTPγS binding in Rhesus H3 [3] [%]
"Cc1cc(N2CC[C@H](N3CCC[C@@H]3C)C2)ccc1NC(=O)C1CCCC1 [Example 39, Cyclopentane carboxylic acid [2-methyl-4-(2(S)-methyl-[1,3′ (S)]bipyrrolidinyl-1′-yl)-phenyl]-amide trifluoroacetate]",-7.2,,0.5,
